Laboratory results reported in the NIST ThermoML archive (doi:10.1021/je060088h).
± gives the expanded uncertainty stated by the source.

Conditions: Liquid, flow method with low res time

## CC(O)COC(C)(C)C (stereo unspecified) [1-(1,1-dimethylethoxy)-2-propanol]
450.5 K
  vapor or sublimation pressure: 200.9 ± 8.1 kPa
472.9 K
  vapor or sublimation pressure: 337.8 ± 14 kPa
510.2 K
  vapor or sublimation pressure: 689.5 ± 28 kPa
553.3 K
  vapor or sublimation pressure: 1380 ± 55 kPa
592.7 K
  vapor or sublimation pressure: 2414 ± 97 kPa
597.5 K
  vapor or sublimation pressure: 2586 ± 100 kPa
598.5 K
  vapor or sublimation pressure: 2668 ± 110 kPa
  Critical pressure: 2720 ± 110 kPa
  Critical temperature: 600.7 ± 4 K

## CCCCCCCCCCCCS [1-dodecanethiol]
544.5 K
  vapor or sublimation pressure: 89.98 ± 3.6 kPa
577.8 K
  vapor or sublimation pressure: 178.6 ± 7.2 kPa
614.7 K
  vapor or sublimation pressure: 348.2 ± 14 kPa
659.9 K
  vapor or sublimation pressure: 694.3 ± 28 kPa
688.6 K
  vapor or sublimation pressure: 1039 ± 42 kPa
712.4 K
  vapor or sublimation pressure: 1384 ± 55 kPa
729.8 K
  vapor or sublimation pressure: 1726 ± 69 kPa
  Critical pressure: 1810 ± 70 kPa
  Critical temperature: 733.7 ± 4 K

## CSc1ccccc1 [1-phenyl-1-thiaethane]
463.7 K
  vapor or sublimation pressure: 90.87 ± 3.7 kPa
492.1 K
  vapor or sublimation pressure: 177.3 ± 7.1 kPa
526.3 K
  vapor or sublimation pressure: 354.1 ± 14 kPa
566.1 K
  vapor or sublimation pressure: 696.4 ± 28 kPa
613.6 K
  vapor or sublimation pressure: 1383 ± 55 kPa
671.1 K
  vapor or sublimation pressure: 2765 ± 110 kPa
691.7 K
  vapor or sublimation pressure: 3454 ± 140 kPa
699.9 K
  vapor or sublimation pressure: 3799 ± 150 kPa
704.3 K
  vapor or sublimation pressure: 3964 ± 160 kPa
  Critical pressure: 4050 ± 160 kPa
  Critical temperature: 705.9 ± 4 K

## OCCc1ccccc1 [2-phenylethanol]
488.7 K
  vapor or sublimation pressure: 91.7 ± 3.7 kPa
515.5 K
  vapor or sublimation pressure: 174.9 ± 7 kPa
547.5 K
  vapor or sublimation pressure: 340.6 ± 14 kPa
587.4 K
  vapor or sublimation pressure: 692.9 ± 28 kPa
634.4 K
  vapor or sublimation pressure: 1382 ± 55 kPa
689.8 K
  vapor or sublimation pressure: 2762 ± 110 kPa
711.2 K
  vapor or sublimation pressure: 3451 ± 140 kPa
719.2 K
  vapor or sublimation pressure: 3793 ± 150 kPa
722.5 K
  vapor or sublimation pressure: 3966 ± 160 kPa
  Critical pressure: 3990 ± 160 kPa
  Critical temperature: 723.5 ± 4 K

## C=CCO [2-propenol]
438.1 K
  vapor or sublimation pressure: 759.8 ± 82 kPa
465.2 K
  vapor or sublimation pressure: 1383 ± 150 kPa
498.5 K
  vapor or sublimation pressure: 2595 ± 280 kPa
531.5 K
  vapor or sublimation pressure: 4482 ± 480 kPa
545.4 K
  vapor or sublimation pressure: 5516 ± 590 kPa
546.5 K
  vapor or sublimation pressure: 5599 ± 600 kPa
  Critical pressure: 5640 ± 330 kPa
  Critical temperature: 547.1 ± 4 K

## c1ccc2ccccc2c1 [naphthalene]
502.2 K
  vapor or sublimation pressure: 128.9 ± 5.2 kPa
552.2 K
  vapor or sublimation pressure: 337.8 ± 14 kPa
646.6 K
  vapor or sublimation pressure: 1338 ± 54 kPa
731.8 K
  vapor or sublimation pressure: 3445 ± 140 kPa
741.5 K
  vapor or sublimation pressure: 3793 ± 150 kPa
745.9 K
  vapor or sublimation pressure: 3958 ± 160 kPa
  Critical pressure: 4130 ± 170 kPa
  Critical temperature: 750 ± 4 K

## CCCCCCCCCCCCCCCCCCCCCCCCCCCCCC [triacontane]
713.5 K
  vapor or sublimation pressure: 82.32 ± 3.3 kPa
737.8 K
  vapor or sublimation pressure: 127.8 ± 5.1 kPa
761.2 K
  vapor or sublimation pressure: 190.2 ± 7.6 kPa
786 K
  vapor or sublimation pressure: 282.4 ± 11 kPa
809.6 K
  vapor or sublimation pressure: 414.1 ± 17 kPa
